The results in this text go back to patent US20230142739A1, “PROTEIN-PROTEIN INTERACTION STABILIZERS” (The Regents of the University of California, priority 2020, published 2023).

The target of test [1] is T1, ER (Homo sapiens, UniProt P31947). Nature of the test: Fp (EC50)/fold-stabilization of peptide, ER. It counts as binding. Conditions: 24 hr incubation.
For test [2], the target named is T1, ER. As to the kind of experiment: MS (KD,app), ER. It is filed as binding. Conditions: 24 hr incubation.
In another test the target is 14-3-3/NFκBp65 peptide (Homo sapiens, UniProt P31947). As to the kind of experiment: Fluorescence polarization assay, FITC-NFκBp65 peptide binding to 14-3-3 with increasing fragment. The source says:
As the primary assays to test for binding and activity we used X-ray protein crystallography (crystal soaking) and a fluorescence polarization assay (FP) employing a fluorophore-labelled (FITC) version of the NFκBp65 peptide. After some rounds of analogues testing, we were able to identify the molecules' electrochemical properties that are enabling the lysine attach to the carbonyl feature of the fragment. […] This reflects a principal feature of orthosteric PPI stabilization which is based on the direct, simultaneous physical interaction of the stabilizer with both protein partners.
In addition to the hydrophobic interaction of the primary phenyl ring of TCF521-129 with the side chain of Ile46, the 2,6-dimethylmorpholine substituent sits on top of this side chain and additionally contacts with one of its methyl groups Pro47 and Gly48. The opposite methyl is engaging a hydrophobic patch in the ‘roof’ of the 14-3-3 groove comprised of Leu218, Ile219, and […] (FIG. 9B, upper row). […] The potential PPI stabilizing activity of both fragments were tested in a fluorescence polarization assay measuring the binding of a fluorescently-labelled (FITC) NFκBp65 peptide to 14-3-3 in the presence of an increasing concentration of the fragment.

The target in the next test is T2, 14-3-3σ(C42)/ERα-pp (Homo sapiens, UniProt P31947, C38N/N42C).
T2 construct: with a truncated C-terminus after T231; His6 (N, cleaved yes); made in house; host or cells: E. coli NiCo21 (DE3), pPROEX HTb
As to the kind of experiment: Fluorescence anisotropy, fragment titration to 14-3-3σ(C42) and fluorescein-ERα-pp. Conditions: 1 μM 14-3-3σ(C42), 100 nM fluorescein-ERα-pp; read-out: EC50 (anisotropy, stabilization of ERα-pp binding). As to the method:
We observed the same trend when we titrated the fragments into a mixture of 1 μM 14-3-3σ(C42) and 100 nM fluorescein-ERα-pp, conditions under which half of the peptide was initially bound. […] The maximum effect was instantaneous at a saturating concentration (100 μM).
Fluorescence Anisotropy. […] Final DMSO concentration in the assay was always 1%. Dilution series of 14-3-3 protein or fragments were made in black, round-bottom 384-microwell plates (Corning) in a final sample volume of 10 μL in triplicates. Fluorescence anisotropy measurements were performed directly and after overnight incubation at room-temperature, using a Tecan Infinite F500 plate reader (filter set λex: 485±20 nm, λem: 535±25 nm). Data reported are at endpoint. EC50 values were obtained from fitting the data with a four-parameter logistic model (4PL) in GraphPad Prism 6.

A further test deals with T3, 14-3-3/Pin1_72 complex (Homo sapiens, UniProt P61981).
T3 construct: the full length 14-3-3γ was dialysis against 25 mM HEPES pH 7.5; made in house; host or cells: E. coli BL21(DE3), pPROEX HTb
Nature of the test: Cooperativity analysis, 14-3-3 titrations at varied constant fragment concentration. It is filed as binding. Conditions: 8 μM compound. From the text: Cooperativity in ternary complex formation. In contrast to PPI inhibition, where affinity to one of the protein pockets is the driving force for drug development, design of molecular glues is driven by cooperative ternary complex formation. Both CC50 and SF values are concentration dependent values and might differ based on assay design. […] Cooperative complex formation is often accompanied by structural changes of the interface of a complex which translates to increased stability of the ternary com-plex. In order to assess cooperativity of the ternary complex, fragments 13, 23, 27 and 28 were selected for cooper-activity analysis. The α-factor of the fragments were determined using 14-3-3 titrations in the presence of varied, but constant concentration of fragment in a dose-dependent manner. […] Further, the interval of change in stabilization further describes the systems cooperative behaviour.
However, at higher concentration regimes significant assay interference was observed, probably due to compound aggregation. Fragments 23, 27 and 28 all reached saturation or approached saturation enabling accurate determination of α-factor. […] KD remains constant also at higher concentrations of FC-A, indicating non-specific effects.

Another test has as its target T4, 14-3-3/ERα complex (Homo sapiens, UniProt P61981).
T4 construct: the full length 14-3-3γ was dialysis against 25 mM HEPES pH 7.5; made in house; host or cells: E. coli BL21(DE3), pPROEX HTb
T4 sequence (P61981 1-247): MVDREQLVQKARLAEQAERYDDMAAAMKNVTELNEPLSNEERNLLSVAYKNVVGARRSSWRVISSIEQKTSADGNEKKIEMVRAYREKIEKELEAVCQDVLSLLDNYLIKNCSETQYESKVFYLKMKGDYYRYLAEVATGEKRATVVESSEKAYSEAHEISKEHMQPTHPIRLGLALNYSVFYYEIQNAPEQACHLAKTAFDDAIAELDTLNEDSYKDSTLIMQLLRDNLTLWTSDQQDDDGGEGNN
Nature of the test: Selectivity screening FA, ERα peptide. It counts as binding. The source says:
Selectivity screening of covalent fragments. Drugging the hub protein 14-3-3 raises the challenge of selectivity. We hypothesized that the high level of cooperative behavior for 14-3-3/Pin1_72/28 complex is a function of the unique functionality and topology of the interface, specifically the +1 and +3 amino acid of Pin1_72 with the covalent fragment. We further rationalized that this cooperativity would likely translate to high selectivity. To test this hypothesis, fragments 13, 27 and 28 were screened at a single fragment concentration (100 μM) against a panel of 13 peptides as diverse representatives of 14-3-3 client proteins, differing in size and hydrophobicity of the +1 amino acid (FIG. 22A).
(§1) Fluorescence Anisotropy (FA) Assays.

The next test concerns the target T5, Pin1_72/14-3-3γ (Homo sapiens, UniProt P61981+Q13526).
T5 construct: the full length 14-3-3γ was dialysis against 25 mM HEPES pH 7.5; made in house; host or cells: E. coli BL21(DE3), pPROEX HTb
Nature of the test: Fluorescence anisotropy protein titration, Pin1_72/14-3-3γ at constant compound. It counts as binding. Conditions: based on internal DMSO control and 100 μM fragment.
From the text: Inspired by the binding poses of 3 and 9 we combined their structural features to improve stabilization. […] In case of complex stabilization, a left shift of apparent KD values is expected, here described as stabilization factors (SF).
as §1

In a further test the target is T6, Pin1_72/14-3-3σΔC (Homo sapiens, UniProt P31947).
T6 construct: The 14-3-3σ protein was C-terminally truncated (ΔC) after T231 to enhance crystallization; His6 (cleaved yes); made in house; host or cells: E. coli BL21(DE3), pPROEX HTb
As to the kind of experiment: X-ray crystal soaking. It is filed as binding. Conditions: 10 mM fragment soak. How it is done:
X-Ray Crystallography. […] B-Raf/14-3-3σΔC and Abl1/14-3-3σΔC crystals were grown in a sitting drop set up. […] All crystals were directly flash-frozen in liquid nitrogen and data acquisition took place at either the P11 beamline of […] campus, Hamburg, Germany) or i-03/i-24 beamline of the diamond light source (Oxford, UK) or in-house. Fragment screening was performed by crystal soaking, whereby a final concentration of 10 mM fragment was added to fully grown crystals (final DMSO ≤1%). The fragment/crystal mixtures incubated for seven days prior to data acquisition. The diffraction data were analyzed with […] pipeline and MolRep was used for phasing. For model refinement Coot, Refmac5 and phenix.refine were utilized in iterative cycles. The elbow software of the phenix suite was used for ligand preparation based on fragment SMILES. Figures were generated with PyMOL© (V2.0.6, Schrodinger LLC).

T1 sequence (P31947 whole entry, other chains not shown): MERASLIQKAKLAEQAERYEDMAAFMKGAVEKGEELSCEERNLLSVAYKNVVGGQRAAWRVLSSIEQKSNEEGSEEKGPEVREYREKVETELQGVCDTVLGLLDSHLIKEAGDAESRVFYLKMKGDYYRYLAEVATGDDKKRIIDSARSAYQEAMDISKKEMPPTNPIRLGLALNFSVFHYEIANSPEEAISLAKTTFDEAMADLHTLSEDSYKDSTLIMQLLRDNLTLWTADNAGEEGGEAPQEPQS
T6 sequence (P31947 1-231 limits assumed, stated change not applied, other chains not shown): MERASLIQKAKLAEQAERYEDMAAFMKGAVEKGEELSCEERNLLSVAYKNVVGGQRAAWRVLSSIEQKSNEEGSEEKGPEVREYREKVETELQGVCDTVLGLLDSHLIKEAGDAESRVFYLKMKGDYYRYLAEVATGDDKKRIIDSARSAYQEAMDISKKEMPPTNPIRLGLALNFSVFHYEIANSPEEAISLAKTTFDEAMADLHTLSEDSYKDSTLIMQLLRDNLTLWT
Sequence of 14-3-3/NFκBp65 peptide (P31947 whole entry, other chains not shown, the tested form may be a part): as the sequence (P31947 whole entry, other chains not shown) above
T2 sequence (P31947 1-231 C38N/N42C, other chains not shown): as the sequence (P31947 1-231 limits assumed, stated change not applied, other chains not shown) above, with C38N, N42C counted along it

Molecule `CC(C)(Oc1ccc(Cl)cc1)C(=O)N1CCC(CNC(=O)CCl)CC1` gave a 50% effective concentration (EC50) on ER [1] of 38.9 µM. This molecule also displayed a Kd on ER [2] of 84.3 µM.

As to `CC(C)(Oc1ccc(Cl)cc1)C(=O)N1CCC(CCNC(=O)CCl)CC1`, at ER [1], the half-maximal effective concentration (EC50) was 32.7 µM. The molecule also showed a Kd at ER [2] of 33.7 µM.

In the case of `CC(=O)N1CCN(S(=O)(=O)c2ccc(C=O)cc2)CC1` [TCF521-123, 4-[(4-acetylpiperazin-1-yl)sulfonyl]benzaldehyde], the PPI stabilizing activity entry at 14-3-3/NFκBp65 peptide (highest concentrations tested) is on record as “only a very weak”.

Take `C=CC(C)(C)OC[C@H]1O[C@H](O[C@@H]2C3=C([C@H](C)COC(C)=O)C[C@H](O)[C@]3(C)/C=C3/[C@@H](COC)CC[C@H]3[C@@H](C)[C@H]2O)[C@H](O)[C@@H](OC(C)=O)[C@@H]1O` [FC-A, fusicoccane-A]: the concentration for a half-maximal effect (EC50) at 14-3-3σ(C42)/ERα-pp stood at 0.216 µM.

For `CC1CN(S(=O)(=O)c2ccc(C=O)cc2)CC(C)O1` (stereo not shown) [TCF521-129, 4-[(2,6-dimethylmorpholin-4-yl)sulfonyl]benzaldehyde], the EC50 on 14-3-3/NFκBp65 peptide (read-out: EC50 (stabilizes interaction of peptide with 14-3-3)) turned out to be 370 µM.

As to `C=CC(C)(C)OC[C@H]1O[C@H](O[C@@H]2C3=C([C@H](C)COC(C)=O)C[C@H](O)[C@]3(C)/C=C3/[C@@H](COC)CC[C@H]3[C@@H](C)[C@H]2O)[C@H](O)[C@@H](OC(C)=O)[C@@H]1O` [FCA, Fusicoccin A, reference compound], the “SF 8 μM” value on 14-3-3/Pin1_72 complex is reported as roughly 10. For the same molecule, the “stabilization of the 14-3-3/ERα complex” value on 14-3-3/ERα complex was found to be 110 fold.

For `O=Cc1ccc(-n2ccnc2-c2ccc(Br)cc2)cc1Br` [compound 24, 2-bromo-4-(2-(4-bromophenyl)-1H-imidazol-1-yl)benzaldehyde], on Pin1_72/14-3-3γ, the “SF (fold stabilization)” value is listed as 3.32. Also, at Pin1_72/14-3-3σΔC, the “PDB: electron density due to compound binding” value (“PDB: electron density due” below) is “n. bind”.

`O=Cc1ccc(-n2ccnc2-c2ccccc2)c(Oc2ccccc2)c1` [compound 21, 3-phenoxy-4-(2-phenyl-1H-imidazol-1-yl)benzaldehyde]: at Pin1_72/14-3-3σΔC, the “PDB: electron density due” value is on record as “n. bind”.

In the case of `O=Cc1ccc(-n2ccnc2-c2ccccc2)c(OC(F)(F)F)c1` [compound 20, 4-(2-phenyl-1H-imidazol-1-yl)-3-(trifluoromethoxy)benzaldehyde], on Pin1_72/14-3-3σΔC, the “PDB: electron density due” value was “n. bind”.
